In patent publication US20100081200A1, “FORMULATIONS AND METHODS FOR CULTURING STEM CELLS” (priority 2007, published 2010):

Tests used:
[1] = tested on: hESCs (HS401 cell line); experiment: Lipids and lipid derivatives: visual evaluation of morphology, size and thickness of undifferentiated colonies; assay type: cell-based, human; details: for morphology of the undifferentiated colonies (in words): in both hES medium and the present culture medium
Source text: (§1) FIGS. 9A-9B show the morphology and differentiation stage of hESCs cultured in the present culture medium and in the presence of lipids and lipid derivatives. UD, PD and DIFF represent undifferentiated, partly differentiated and differentiated hESC colonies, respectively. FIG. 9A) HS401 cell line cultured in the present culture medium supplemented with different lipids and lipid derivatives. FIG. 9B) HS401 cell line cultured in control hES medium supplemented with different lipids and lipid derivatives.
Various lipids and lipid derivatives were tested in the culture medium (RegES) according to some embodiments of the present invention and in the conventional hES culture medium containing KO-SR (Knockout serum replacement, Invitrogen). General morphology, as well as the size and thickness of the undifferentiated colonies were evaluated before each passaging based on visual perceptions (Table 7).

[2] = tested on: hESC colonies (HS401 cell line); experiment: Lipids and lipid derivatives: classification of hESC colonies as undifferentiated, partly differentiated, differentiated; assay type: cell-based, human
Source text: as §1
Furthermore, the hESC colonies were classified into three categories; undifferentiated, partly differentiated and differentiated. Number of each colony type was calculated before each passaging. Later, a percentage value for each colony type of the total amount of colonies was calculated (FIG. 9).

[3] = tested on: human embryonic stem cells; experiment: Effect of different vitamins on the undifferentiated growth of human embryonic stem cells; assay type: cell-based; details: for effect on undifferentiated growth / number of undifferentiated colonies (in words): retinol 20 μM, nicotinamide 5 mM and 10 mM, Vitamin Mix 1%
Protocol: The effect of different vitamins on the undifferentiated growth of human embryonic stem cells was tested by providing retinol (20 μM), nicotinamide (5 mM and 10 mM) or commercial Vitamin Mix (1%) containing nicotinamide but not retinol (MEM Vitamin Solution (100x), cat. No. 11120-037, provided by Gibco/Invitrogen) to human embryonic stem cells (Table 1). […] Vitamin Mix had no effect on the undifferentiated growth of embryonic stem cells.
Accordingly, the serum replacement according to some embodiments of the present invention is a xeno-free formulation comprising at least retinol. In some embodiments, the concentration range of retinol in the serum replacement is such that the final culture medium comprises from about 0.25 mg/l to about 0.5 mg/l, more specifically about 0.57 mg/l retinol. Accordingly, in embodiments wherein basal medium is to be supplemented with 20% (vol/vol) serum replacement, said serum replacement comprises retinol from about 1.25 mg/l to about 2.5 mg/l, more specifically about 2.85 mg/l.

[4] = tested on: hESCs (Regea 07/046, HS401); experiment: Retinol: proliferation and expression of stem cell markers; assay type: cell-based, human
Protocol: FIG. 10A) Bright-field microscopic image of hESCs (Regea 07/046) at day 3 cultured in the present culture medium without retinol for 5 passages. FIG. 10B) Bright-field microscopic image of hESCs (Regea 07/046) at day 3 cultured in the present culture medium containing 2.0 μM retinol for 5 passages. The size of the colonies is larger in the presence of retinol when compared to the colonies cultured without retinol. Scale bar 500 μm. FIGS. 10C-D) Fluorescent microscopic image of hESCs (HS401) cultured in the present culture medium containing 2.0 μM retinol for 12 passages showing positive expression of
Nanog and TRA-1-81. Insets represent DAPI staining. Scale bar 200 μm. FIG. 10E) Cell proliferation analysis of hESC line Regea 07/046 cultured in the present culture medium without and in the presence of 0.5, 2.0 and 3.5 μM retinol for 10 passages. FIG. 10F) Quantitative RT-PCR analysis of Oct4, GDF3, DNMT3B, TDGF1 and Nanog expression in hESC line Regea 07/046 cultured in the present culture medium without and in the presence of 0.5, 2.0 and 3.5 μM retinol for 10 passages.
Retinol was selected to be further evaluated in the maintenance of undifferentiated hESCs. […] In the presence of 2.0 μM retinol, the growth of the colonies started earlier and already at day 3 the size of the colonies was bigger (FIG. 10A-10B).

[5] = tested on: hESC line Regea 07/046; experiment: Activin A: proliferation assay, FACS and qRT-PCR of pluripotency markers; assay type: cell-based, human
Protocol: FIG. 11B) Quantitative RT-PCR analysis of Nanog, Oct4, GDF3, DNMT3B, GABRB3 and GDF3 expression in hESC line Regea 07/046 cultured in the present culture medium without and in the presence of 5 ng/ml and 10 ng/ml Activin A and hES control medium for 10 passages. FIG. 11C) FACS analysis of SSEA4 and TRA-1-60 stem cell markers of hESC line Regea 07/046 cultured in the present culture medium without and in the presence of 5 ng/ml and 10 ng/ml Activin A and hES control medium for 10 passages.

[6] = in the present culture medium, compared to control hES or Albumax-RegES medium
[7] = in hES culture medium, compared to control hES medium

In the case of CC(C)NCC(O)c1ccc(O)c(O)c1 (racemic) [DL-isoproterenol, reference compound], the Morphology ([1]; RegES medium, 0.1 mg/ml) is reported as “++”, the Morphology ([1]; hES medium, 0.1 mg/ml) is reported as “+ (poor morphology, uneven edges in the colonies, thin and/or small colonies)” and the “morphology (in words)” value ([1]; in hES culture medium) is reported as “poor morphology and/or excess differentiation”. The “morphology (in words)” value ([1]; in the present culture medium) was “satisfying morphology” and the “number of undifferentiated and differentiated colonies” value [2, 6] was “number of undifferentiated colonies increased and the number of differentiated colonies decreased”.

With CC/C=C\C/C=C\C/C=C\CCCCCCCC(=O)O [Alfa-linoleic acid] the Morphology ([1]; RegES medium, 5 μg/ml) was “−/− (excess differentiation of the colonies, poor morphology)” and the Morphology ([1]; hES medium, 5 μg/ml) was “−/− (excess differentiation of the colonies, poor morphology)”.

With CCCCC/C=C\C/C=C\C/C=C\C/C=C\CCCC(=O)O [Arachidonic acid] the “number of undifferentiated and differentiated colonies” value [2, 7] was “number of undifferentiated colonies increased and the number of differentiated colonies decreased”.

CC(C)CCC[C@@H](C)[C@H]1CC[C@H]2[C@@H]3CC=C4C[C@@H](O)CC[C@]4(C)[C@H]3CC[C@]12C [Cholesterol] was tested, and the “number of undifferentiated and differentiated colonies” value [2, 7] was “number of undifferentiated colonies increased and the number of differentiated colonies decreased”.

In the case of CCCCC/C=C\C/C=C\C/C=C\CCCCC(=O)O [Gamma-linoleic acid], the Morphology ([1]; RegES medium, 2.5 μg/ml) is reported as “− (excess differentiation of the colonies, poor morphology)” and the Morphology ([1]; hES medium, 2.5 μg/ml) is reported as “++”.

CCCCC/C=C\C/C=C\CCCCCCCC(=O)O [Linoleic acid] was tested, and the “morphology of the undifferentiated colonies (in words)” value [1] was “improved the morphology” and the “number of undifferentiated and differentiated colonies” value [2, 6] was “number of undifferentiated colonies increased and the number of differentiated colonies decreased”.

In the case of NC(=O)c1cccnc1 [Nicotinamide, nicotinamide], the “effect on undifferentiated growth / number of undifferentiated colonies (in words)” value [3] is reported as “promoting their differentiation”.

CCCCCC/C=C\CCCCCCCC(=O)O [Palmitoleic acid] was tested, and the “morphology of the undifferentiated colonies (in words)” value [1] was “improved the morphology” and the “number of undifferentiated and differentiated colonies” value [2, 6] was “number of undifferentiated colonies increased and the number of differentiated colonies decreased”.

For CCCCC[C@H](O)/C=C/[C@H]1[C@H](O)CC(=O)[C@@H]1C/C=C\CCCC(=O)O [Prostaglandin E2], the Morphology ([1]; RegES medium, 50 ng/ml) was “− (excess differentiation of the colonies, poor morphology)” and the Morphology ([1]; hES medium, 50 ng/ml) was “+ (poor morphology, uneven edges in the colonies, thin and/or small colonies)”.

With CCCCC[C@H](O)/C=C/[C@@H]1[C@@H](C/C=C\CCCC(=O)O)[C@@H](O)C[C@H]1O [Prostaglandin F2] the Morphology ([1]; RegES medium, 50 ng/ml) was “++”, the Morphology ([1]; hES medium, 50 ng/ml) was “− (excess differentiation of the colonies, poor morphology)” and the “morphology (in words)” value ([1]; in hES culture medium) was “poor morphology and/or excess differentiation”. The “morphology (in words)” value ([1]; in the present culture medium) was “satisfying morphology”.

In the case of CC1=C(/C=C/C(C)=C/C=C/C(C)=C/CO)C(C)(C)CCC1 [Retinol, retinol], the “morphology of the undifferentiated colonies (in words)” value [1] is reported as “improved the morphology”, the “Nanog relative expression level” value ([4]; 2.0 μM and 3.5 μM, qRT-PCR) is reported as “over twentyfold” and the proliferation rate ([4]; 2.0 μM or 3.5 μM, compared to without retinol or 0.5 μM) is reported as “almost two-fold”. The “proliferation of hESCs and expression of hESC specific markers” value ([4]; 2.0 μM or above) was “improved the proliferation of hESCs as well as induced the expression of hESC specific markers”, the “size of the colonies” value ([4]; 2.0 μM, day 3) was “bigger” and the “morphology and number of undifferentiated colonies” value ([4]; 0.1-0.5 μM) was “not effective”. The “immunocytochemical staining of Nanog and TRA-1-81” value ([4]; cultured in the presence of retinol) was “showed expression of stem cell markers Nanog and TRA-1-81”, the “number of undifferentiated and differentiated colonies” value [2, 7] was “number of undifferentiated colonies increased and the number of differentiated colonies decreased” and the “number of undifferentiated and differentiated colonies” value [2, 6] was “number of undifferentiated colonies increased and the number of differentiated colonies decreased”. The “maintaining stem cells in an undifferentiated state” value ([3]; 2 μM) was “effective” and the “effect on undifferentiated growth / number of undifferentiated colonies (in words)” value [3] was “increased the number of undifferentiated colonies considerably”.

CCCCCCCCCCCCCCCCCC(=O)O [Stearic acid] was tested, and the “morphology (in words)” value ([1]; in hES culture medium) was “poor morphology and/or excess differentiation”, the “morphology (in words)” value ([1]; in the present culture medium) was “satisfying morphology” and the “number of undifferentiated and differentiated colonies” value [2, 6] was “number of undifferentiated colonies increased and the number of differentiated colonies decreased”.

For “Activin A: Activin A, growth factor supplement of the culture medium”, the proliferation rate ([5]; 5 or 10 ng/ml in the present culture medium, compared to without Activin A) was “almost two-fold” and the “expression of pluripotency supporting markers” value ([5]; FACS and qRT-PCR, transcriptional and translational level) was “increased the expression”.

In the case of Conjugated linoleic acid, the Morphology ([1]; RegES medium, 5 μg/ml) is reported as “++”, the Morphology ([1]; hES medium, 5 μg/ml) is reported as “+++ (nice morphology, even, thick and big colonies)” and the “morphology of the undifferentiated colonies (in words)” value [1] is reported as “improved the morphology”. The “number of undifferentiated and differentiated colonies” value [2, 7] was “number of undifferentiated colonies increased and the number of differentiated colonies decreased” and the “number of undifferentiated and differentiated colonies” value [2, 6] was “number of undifferentiated colonies increased and the number of differentiated colonies decreased”.

With Lysophosphatidylcholine the Morphology ([1]; RegES medium, 5 μg/ml) was “++”, the Morphology ([1]; hES medium, 5 μg/ml) was “− (excess differentiation of the colonies, poor morphology)” and the “morphology (in words)” value ([1]; in hES culture medium) was “poor morphology and/or excess differentiation”. The “morphology (in words)” value ([1]; in the present culture medium) was “satisfying morphology”.

With Phosphatidylcholine the Morphology ([1]; RegES medium, 2.5 μg/ml) was “− (excess differentiation of the colonies, poor morphology)”, the Morphology ([1]; hES medium, 2.5 μg/ml) was “++” and the “number of undifferentiated and differentiated colonies” value [2, 7] was “number of undifferentiated colonies increased and the number of differentiated colonies decreased”.

With Phosphatidylethanolamine the Morphology ([1]; RegES medium, 5 μg/ml) was “++”, the Morphology ([1]; hES medium, 5 μg/ml) was “− (excess differentiation of the colonies, poor morphology)” and the “morphology (in words)” value ([1]; in hES culture medium) was “poor morphology and/or excess differentiation”. For the same molecule, the “morphology (in words)” value ([1]; in the present culture medium) was “satisfying morphology”.
